According to patent publication US8933195B2, “Histone deacetylase inhibitors and synthetic method thereof and use thereof in manufacture of medicaments” (Nanjing Yoko Biomedical R & D Ltd., priority 2011, dated 2015):

Tests used:
[1] = target: T1, HDAC7 (Homo sapiens, UniProt Q8WUI4); experiment: Measurement of biochemical activities of HDAC (fluorescently-labeled acetylated lysine substrate)
T1 sequence (Q8WUI4 1-952): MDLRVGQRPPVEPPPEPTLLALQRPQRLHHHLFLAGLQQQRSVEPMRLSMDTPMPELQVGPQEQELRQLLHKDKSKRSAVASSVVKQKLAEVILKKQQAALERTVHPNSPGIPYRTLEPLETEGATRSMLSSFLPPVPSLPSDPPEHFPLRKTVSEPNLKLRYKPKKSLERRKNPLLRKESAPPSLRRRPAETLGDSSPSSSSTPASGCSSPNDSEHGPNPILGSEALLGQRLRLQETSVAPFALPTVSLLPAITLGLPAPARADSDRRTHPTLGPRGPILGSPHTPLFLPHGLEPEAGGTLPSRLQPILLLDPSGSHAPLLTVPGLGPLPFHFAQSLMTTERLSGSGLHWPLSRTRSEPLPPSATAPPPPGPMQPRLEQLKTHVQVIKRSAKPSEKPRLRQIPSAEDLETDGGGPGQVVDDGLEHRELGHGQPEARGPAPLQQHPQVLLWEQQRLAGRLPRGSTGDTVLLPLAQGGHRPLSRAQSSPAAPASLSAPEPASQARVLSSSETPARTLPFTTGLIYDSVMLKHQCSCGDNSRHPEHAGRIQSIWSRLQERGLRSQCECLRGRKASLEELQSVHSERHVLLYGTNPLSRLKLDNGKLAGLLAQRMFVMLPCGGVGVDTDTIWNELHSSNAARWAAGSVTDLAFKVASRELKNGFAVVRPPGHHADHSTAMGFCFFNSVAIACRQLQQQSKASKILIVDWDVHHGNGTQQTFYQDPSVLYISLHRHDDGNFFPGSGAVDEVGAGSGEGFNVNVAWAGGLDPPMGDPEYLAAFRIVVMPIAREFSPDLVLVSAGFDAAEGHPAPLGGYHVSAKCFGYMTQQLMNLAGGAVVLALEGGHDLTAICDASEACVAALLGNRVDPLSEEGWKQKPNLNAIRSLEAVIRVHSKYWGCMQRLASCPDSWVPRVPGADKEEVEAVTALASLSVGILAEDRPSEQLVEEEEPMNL
Outline: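 For both HDAC isoforms, fluorescent acetyl-lysine substrate ([…] in reaction) incubated with enzyme and compounds for 30 min at 37; developer then added for 15 min at room temperature. Fluorescence read at excitation 360 nm, emission 460 nm.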

[2] = test system: human colon cancer HCT-116; experiment: Subcutaneously transplanted tumors in nude mice; format: in vivo, BALB/cA nude mice; set-up: key to RTV (mean ± SD): RTV = Vt/V0, tumor volume at time t over volume at d0; conditions: for 1-T/C tumor inhibition rate: after three weeks; for RTV (mean ± SD) / TV (mean ± SD) d21: d21
Experimental: The solvents are isopropanol and anhydrous ethanol (mixed in the volume ratio of 1:1). The test sample is dissolved with solvents and physiological saline in the ratio of 1:1 for use, and the above solvents and physiological saline are dissolved in the ratio of 1:1 as a negative control.
The number of mice in each group: 12 mice in the negative control group, and 6 mice in the administration group.
The cell strains are inoculated to the right axilla subcutaneous layer of the nude mice, with 5×10^6 per mouse. After formed, the transplanted tumors are passed down two generations in the nude mice and then used.
Tumor tissues in the vigorous growth period are cut into about 1.5 mm^3, and inoculated to the right axilla subcutaneous layer of the nude mice under aseptic conditions. For the subcutaneously transplanted tumors of the nude mice, the diameter of the transplanted tumors is measured by a vernier caliper. The mice are randomly grouped after the tumors grow to 100-200 mm^3. […] The diameter of the transplanted tumors is measured twice per week in the whole experimental process, and meanwhile the weight of the mice is weighed. The calculation formula of tumor volume (TV) is TV=½×a×b^2, where a and b represent length and width, respectively.
The relative tumor volume (RTV) is calculated according to the measured results, with the following calculation formula: RTV=Vt/V0, where V0 is the tumor volume obtained by measurement during administration in different cages (i.e., d0), Vt is the tumor volume obtained by measurement at each time. […] (Wc−WT)Wc×100%, where Wc is the tumor weight of the control group, and WT is the tumor weight of the treatment group.

[3] = Table 1.1, 10 mg/kg q3d × 3w iv
[4] = Table 1.1, 20 mg/kg q3d × 3w iv
[5] = Table 2.1, 20 mg/kg q3d × 3w iv

C/C=C1\NC(=O)c2csc(n2)CNC(=O)C[C@@H](/C=C/CCSC(=O)CCCCCCC)OC(=O)[C@H](C(C)C)NC1=O [Compound 1-3]
IC50 HDAC7 [1]: no activity
1-T/C tumor inhibition rate ([2]; Table 1.1, 5 mg/kg q3d × 3w iv): 7.92%
TV (mean ± SD) d0 ([2]; Table 1.1, 5 mg/kg q3d × 3w iv): 122 ± 25 mm^3
Weight d0 ([2]; Table 1.1, 5 mg/kg q3d × 3w iv): 16.7 g
RTV (mean ± SD) ([2]; Table 1.1, 5 mg/kg q3d × 3w iv): 9.56 ± 2.44
TV (mean ± SD) d21 ([2]; Table 1.1, 5 mg/kg q3d × 3w iv): 1166 ± 201 mm^3
1-T/C tumor inhibition rate [2, 3]: 39.71%
TV (mean ± SD) d0 [2, 3]: 120 ± 19 mm^3
Weight d0 [2, 3]: 17.5 g
RTV (mean ± SD) [2, 3]: 6.26 ± 3.33
TV (mean ± SD) d21 [2, 3]: 751 ± 244 mm^3
1-T/C tumor inhibition rate [2, 4]: 70.26%
TV (mean ± SD) d0 [2, 4]: 116 ± 26 mm^3
Weight d0 [2, 4]: 16.7 g
RTV (mean ± SD) [2, 4]: 3.09 ± 3.14
TV (mean ± SD) d21 [2, 4]: 358 ± 201 mm^3
Tumor Volume TV (mean ± SD) d 0 ([2]; Table 1.2, 5 mg/kg): 122 ± 25 mm^3
Tumor Volume TV (mean ± SD) d 3 ([2]; Table 1.2, 5 mg/kg): 179 ± 15 mm^3
Tumor Volume TV (mean ± SD) d 7 ([2]; Table 1.2, 5 mg/kg): 343 ± 58 mm^3
Tumor Volume TV (mean ± SD) d 10 ([2]; Table 1.2, 5 mg/kg): 454 ± 41 mm^3
Tumor Volume TV (mean ± SD) d 14 ([2]; Table 1.2, 5 mg/kg): 605 ± 60 mm^3
Tumor Volume TV (mean ± SD) d 17 ([2]; Table 1.2, 5 mg/kg): 895 ± 138 mm^3
Tumor Volume TV (mean ± SD) d 0 ([2]; Table 1.2, 10 mg/kg): 120 ± 19 mm^3
Tumor Volume TV (mean ± SD) d 3 ([2]; Table 1.2, 10 mg/kg): 163 ± 38 mm^3
Tumor Volume TV (mean ± SD) d 7 ([2]; Table 1.2, 10 mg/kg): 217 ± 67 mm^3
Tumor Volume TV (mean ± SD) d 10 ([2]; Table 1.2, 10 mg/kg): 302 ± 105 mm^3
Tumor Volume TV (mean ± SD) d 14 ([2]; Table 1.2, 10 mg/kg): 408 ± 70 mm^3
Tumor Volume TV (mean ± SD) d 17 ([2]; Table 1.2, 10 mg/kg): 571 ± 175 mm^3
Tumor Volume TV (mean ± SD) d 0 ([2]; Table 1.2, 20 mg/kg): 116 ± 26 mm^3
Tumor Volume TV (mean ± SD) d 3 ([2]; Table 1.2, 20 mg/kg): 129 ± 10 mm^3
Tumor Volume TV (mean ± SD) d 7 ([2]; Table 1.2, 20 mg/kg): 155 ± 28 mm^3
Tumor Volume TV (mean ± SD) d 10 ([2]; Table 1.2, 20 mg/kg): 193 ± 68 mm^3
Tumor Volume TV (mean ± SD) d 14 ([2]; Table 1.2, 20 mg/kg): 245 ± 117 mm^3
Tumor Volume TV (mean ± SD) d 17 ([2]; Table 1.2, 20 mg/kg): 275 ± 112 mm^3
Weight (mean ± SD) d 0 ([2]; Table 1.3, 5 mg/kg): 16.7 ± 0.6 g
Weight (mean ± SD) d 3 ([2]; Table 1.3, 5 mg/kg): 15.9 ± 0.7 g
Weight (mean ± SD) d 7 ([2]; Table 1.3, 5 mg/kg): 15.0 ± 0.9 g
Weight (mean ± SD) d 10 ([2]; Table 1.3, 5 mg/kg): 14.5 ± 1.2 g
Weight (mean ± SD) d 14 ([2]; Table 1.3, 5 mg/kg): 14.1 ± 1.0 g
Weight (mean ± SD) d 17 ([2]; Table 1.3, 5 mg/kg): 13.5 ± 0.9 g
Weight (mean ± SD) d 21 ([2]; Table 1.3, 5 mg/kg): 13.3 ± 1.0 g
Weight (mean ± SD) d 0 ([2]; Table 1.3, 10 mg/kg): 17.5 ± 1.6 g
Weight (mean ± SD) d 3 ([2]; Table 1.3, 10 mg/kg): 16.6 ± 1.9 g
Weight (mean ± SD) d 7 ([2]; Table 1.3, 10 mg/kg): 15.8 ± 2.0 g
Weight (mean ± SD) d 10 ([2]; Table 1.3, 10 mg/kg): 15.7 ± 2.0 g
Weight (mean ± SD) d 14 ([2]; Table 1.3, 10 mg/kg): 14.8 ± 1.8 g
Weight (mean ± SD) d 17 ([2]; Table 1.3, 10 mg/kg): 14.2 ± 1.7 g
Weight (mean ± SD) d 21 ([2]; Table 1.3, 10 mg/kg): 13.5 ± 1.6 g
Weight (mean ± SD) d 0 ([2]; Table 1.3, 20 mg/kg): 16.7 ± 0.5 g
Weight (mean ± SD) d 3 ([2]; Table 1.3, 20 mg/kg): 16.1 ± 0.4 g
Weight (mean ± SD) d 7 ([2]; Table 1.3, 20 mg/kg): 14.6 ± 0.4 g
Weight (mean ± SD) d 10 ([2]; Table 1.3, 20 mg/kg): 14.7 ± 0.4 g
Weight (mean ± SD) d 14 ([2]; Table 1.3, 20 mg/kg): 13.7 ± 0.3 g
Weight (mean ± SD) d 17 ([2]; Table 1.3, 20 mg/kg): 13.0 ± 0.3 g
Weight (mean ± SD) d 21 ([2]; Table 1.3, 20 mg/kg): 13.1 ± 0.6 g

C/C=C1\NC(=O)c2csc(n2)CNC(=O)C[C@@H](/C=C/CCSC(=O)CCCCCCC)OC(=O)[C@H](C)NC1=O [Compound 1-4]
IC50 HDAC7 [1]: no activity
1-T/C tumor inhibition rate [2, 5]: 74.46%
TV (mean ± SD) d0 [2, 5]: 116 ± 23 mm^3
Weight d0 [2, 5]: 16.6 g
RTV (mean ± SD) [2, 5]: 2.65 ± 1.70
TV (mean ± SD) d21 [2, 5]: 308 ± 198 mm^3
Tumor Volume TV (mean ± SD) d 0 ([2]; Table 2.2, 20 mg/kg): 118 ± 23 mm^3
Tumor Volume TV (mean ± SD) d 3 ([2]; Table 2.2, 20 mg/kg): 126 ± 12 mm^3
Tumor Volume TV (mean ± SD) d 7 ([2]; Table 2.2, 20 mg/kg): 157 ± 26 mm^3
Tumor Volume TV (mean ± SD) d 10 ([2]; Table 2.2, 20 mg/kg): 189 ± 52 mm^3
Tumor Volume TV (mean ± SD) d 14 ([2]; Table 2.2, 20 mg/kg): 234 ± 103 mm^3
Tumor Volume TV (mean ± SD) d 17 ([2]; Table 2.2, 20 mg/kg): 262 ± 132 mm^3
Weight (mean ± SD) d 0 ([2]; Table 2.3, 20 mg/kg): 16.6 ± 1.2 g
Weight (mean ± SD) d 3 ([2]; Table 2.3, 20 mg/kg): 16.2 ± 1.4 g
Weight (mean ± SD) d 7 ([2]; Table 2.3, 20 mg/kg): 14.8 ± 1.2 g
Weight (mean ± SD) d 10 ([2]; Table 2.3, 20 mg/kg): 14.5 ± 1.0 g
Weight (mean ± SD) d 14 ([2]; Table 2.3, 20 mg/kg): 13.8 ± 0.9 g
Weight (mean ± SD) d 17 ([2]; Table 2.3, 20 mg/kg): 13.3 ± 0.9 g
Weight (mean ± SD) d 21 ([2]; Table 2.3, 20 mg/kg): 13.0 ± 1.0 g
